Assay results published in ChEMBL document CHEMBL6177993, “De Novo 3-(Phenylcarbamoyl) Benzoate Analogues: Efficacy against Multidrug-Resistant S. aureus and Elucidation of the Biodistribution Profile” (J Med Chem, 2025).
Values after ≈ are worked out from the molar mass of the structure shown. Active and inactive are the calls of the source. The calls are words filed in the database; no cut-off is given here.

Columns and labels:
Staphylococcus aureus [1] = experiment: Antibacterial activity against vacomycin-resistant Staphylococcus aureus VRS 12 assessed as reduction in bacterial growth measured after 18 to 24 hrs by broth microdilution method; assay type: functional; settings: time 18-24 hrs
Pseudomonas aeruginosa = experiment: Antibacterial activity against Pseudomonas aeruginosa ATCC 27853 assessed as reduction in bacterial growth measured after 18 to 24 hrs by broth microdilution method; assay type: functional; settings: time 18-24 hrs
Staphylococcus aureus [2] = experiment: Antibacterial activity against Staphylococcus aureus ATCC 29213 measured after 20 passages; assay type: functional, organism-based
Staphylococcus aureus [3] = experiment: Inhibition of biofilm in Staphylococcus aureus ATCC 29213 at 2 ug/ml measured after 12 hrs by crystal violet staining based analysis; assay type: functional, organism-based; settings: dose 2.0 µg/ml
Staphylococcus aureus [4] = experiment: Antibacterial activity against Staphylococcus aureus ATCC 29213 assessed as reduction in bacterial growth measured after 18 to 24 hrs by broth microdilution method; assay type: functional; settings: time 18-24 hrs
Staphylococcus aureus [5] = experiment: Inhibition of biofilm in Staphylococcus aureus ATCC 29213 at 1 times MIC measured after 12 hrs by crystal violet staining based analysis relative to control; assay type: functional
Staphylococcus aureus [6] = experiment: Antibacterial activity against methicillin-resistant Staphylococcus aureus NRS 119 assessed as reduction in bacterial growth measured after 18 to 24 hrs by broth microdilution method; assay type: functional; settings: time 18-24 hrs
Staphylococcus aureus [7] = experiment: Antibacterial activity against methicillin-resistant Staphylococcus aureus NRS 193 assessed as reduction in bacterial growth measured after 18 to 24 hrs by broth microdilution method; assay type: functional; settings: time 18-24 hrs
Acinetobacter baumannii = experiment: Antibacterial activity against Acinetobacter baumannii BAA 1605 assessed as reduction in bacterial growth measured after 18 to 24 hrs by broth microdilution method; assay type: functional; settings: time 18-24 hrs
Staphylococcus aureus [8] = experiment: Antibacterial activity against methicillin-resistant Staphylococcus aureus NRS 198 assessed as reduction in bacterial growth measured after 18 to 24 hrs by broth microdilution method; assay type: functional; settings: time 18-24 hrs
[9] = Hemolytic activity in human Red blood cell at 32 ug/ml measured after 1 hrs by spectrophotometric analysis relative to control; assay type: toxicity, cell-based, Erythrocyte; settings: red blood cells, at 32 µg/mL, read-out: Activity
Staphylococcus aureus [10] = experiment: Antibacterial activity against methicillin-resistant Staphylococcus aureus NRS 194 assessed as reduction in bacterial growth measured after 18 to 24 hrs by broth microdilution method; assay type: functional; settings: time 18-24 hrs
Staphylococcus aureus [11] = experiment: Induction of morphological changes in Staphylococcus aureus ATCC 29213 assessed as accumulation of cellular debris at 2 to 10 times MIC measured after 4 hrs by Scanning electron microscopy based analysis; assay type: functional, organism-based
Staphylococcus aureus [12] = experiment: Synergistic antibacterial activity against Staphylococcus aureus ATCC 29213 assessed as fractional inhibitory concentration index in presence of levofloxacin by checkerboard assay; assay type: functional
Staphylococcus aureus [13] = experiment: Antibacterial activity against methicillin-resistant Staphylococcus aureus NRS 100 assessed as reduction in bacterial growth measured after 18 to 24 hrs by broth microdilution method; assay type: functional; settings: time 18-24 hrs
Staphylococcus aureus [14] = experiment: Induction of morphological changes in Staphylococcus aureus ATCC 29213 assessed as cell shrinkage by measuring cells diameter at 10 times MIC measured after 4 hrs by atomic force microscopy based analysis (reference value: 1.017 micrometer); assay type: functional
Staphylococcus aureus [15] = experiment: Antibacterial activity against methicillin-resistant Staphylococcus aureus NRS 186 assessed as reduction in bacterial growth measured after 18 to 24 hrs by broth microdilution method; assay type: functional; settings: time 18-24 hrs
Enterococcus faecalis = experiment: Antibacterial activity against Enterococcus faecalis ATCC 35550 assessed as reduction in bacterial growth measured after 18 to 24 hrs by broth microdilution method; assay type: functional; settings: time 18-24 hrs
Staphylococcus aureus [16] = experiment: Induction of morphological changes in Staphylococcus aureus ATCC 29213 assessed as cell shrinkage by measuring cells height at 10 times MIC measured after 4 hrs by atomic force microscopy based analysis (reference value: 170.8 nanometer); assay type: functional
HEK293 [17] = experiment: Cytotoxicity against HEK293 cells assessed as cell viability measured after 72 hrs by MTT assay; assay type: toxicity, cell-based; settings: human, hek293, 72 h
Staphylococcus aureus [18] = experiment: Antibacterial activity against vacomycin-resistant Staphylococcus aureus VRS 4 assessed as reduction in bacterial growth measured after 18 to 24 hrs by broth microdilution method; assay type: functional; settings: time 18-24 hrs
Cell membrane [19] = experiment: Disruption of cell membrane in Staphylococcus aureus ATCC 29213 assessed as increase in red fluorescence at 5 to 10 times MIC measured after 4 hrs by DAPI and PI staining based fluorescence microscopic analysis
Bacillus subtilis = experiment: Antibacterial activity against Bacillus subtilis IITKSM1 assessed as reduction in bacterial growth measured after 18 to 24 hrs by broth microdilution method; assay type: functional; settings: time 18-24 hrs
Staphylococcus aureus [20] = experiment: Antibacterial activity against methicillin-resistant Staphylococcus aureus NRS 192 assessed as reduction in bacterial growth measured after 18 to 24 hrs by broth microdilution method; assay type: functional; settings: time 18-24 hrs
HEK293 [21] = experiment: Cytotoxicity against HEK293 cells assessed as cell viability at 1 times MIC measured after 24 hrs by Calcein-AM/PI staining based fluorescence microscopy analysis; assay type: toxicity; settings: human, hek293, 24 h
Staphylococcus aureus [22] = experiment: Induction of morphological changes in Staphylococcus aureus ATCC 29213 assessed as cell deformation at 2 to 10 times MIC measured after 4 hrs by Scanning electron microscopy based analysis; assay type: functional, organism-based
Staphylococcus aureus [23] = experiment: Inhibition of biofilm in Staphylococcus aureus ATCC 29213 at 0.5 times MIC measured after 12 hrs by crystal violet staining based analysis relative to control; assay type: functional
Cell membrane [24] = experiment: Disruption of cell membrane in Staphylococcus aureus ATCC 29213 assessed as increase in PI uptake at 10 times MIC measured after 8 mins by fluorescence based microplate reader analysis
Escherichia coli = experiment: Antibacterial activity against Escherichia coli ATCC 25922 assessed as reduction in bacterial growth measured after 18 to 24 hrs by broth microdilution method; assay type: functional; settings: time 18-24 hrs
[25] = Solubility of the compound in distilled water; assay type: physicochemical; settings: buffer
[26] = Binding affinity to Staphylococcus aureus MurA assessed as inhibition constant
[27] = Binding affinity to Staphylococcus aureus MurZ assessed as inhibition constant
[28] = molecular target: T1, UDP-N-acetylenolpyruvoylglucosamine reductase (Staphylococcus aureus, UniProt P61431); experiment: Binding affinity to Staphylococcus aureus MurB assessed as inhibition constant
T1 sequence (P61431 whole entry): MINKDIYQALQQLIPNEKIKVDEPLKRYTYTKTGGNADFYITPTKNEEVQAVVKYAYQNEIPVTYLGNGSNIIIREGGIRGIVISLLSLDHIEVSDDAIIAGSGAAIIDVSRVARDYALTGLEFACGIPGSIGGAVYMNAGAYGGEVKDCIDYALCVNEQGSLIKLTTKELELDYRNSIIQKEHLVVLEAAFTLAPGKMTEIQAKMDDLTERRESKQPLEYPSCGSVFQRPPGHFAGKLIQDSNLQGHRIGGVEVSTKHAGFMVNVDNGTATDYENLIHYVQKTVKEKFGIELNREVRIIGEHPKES

Staphylococcus aureus [29] = experiment: Antibacterial activity against vacomycin-resistant Staphylococcus aureus VRS 1 assessed as reduction in bacterial growth measured after 18 to 24 hrs by broth microdilution method; assay type: functional; settings: time 18-24 hrs
Staphylococcus aureus [30] = experiment: Antibacterial activity against methicillin-sensitive Staphylococcus aureus ATCC 29213 assessed as reduction in bacterial growth measured after 18 to 24 hrs by broth microdilution method; assay type: functional; settings: time 18-24 hrs
Klebsiella pneumoniae = experiment: Antibacterial activity against Klebsiella pneumoniae BAA 1705 assessed as reduction in bacterial growth measured after 18 to 24 hrs by broth microdilution method; assay type: functional; settings: time 18-24 hrs
Staphylococcus aureus [31] = experiment: Induction of morphological changes in Staphylococcus aureus ATCC 29213 assessed as cell shrinkage at 2 to 10 times MIC measured after 4 hrs by Scanning electron microscopy based analysis; assay type: functional, organism-based
Staphylococcus aureus [32] = experiment: Synergistic antibacterial activity against Staphylococcus aureus ATCC 29213 assessed as fractional inhibitory concentration index in presence of vancomycin by checkerboard assay; assay type: functional
Staphylococcus aureus [33] = experiment: Inhibition of biofilm in Staphylococcus aureus ATCC 29213 at 2 times MIC measured after 12 hrs by crystal violet staining based analysis relative to control; assay type: functional
Staphylococcus aureus [34] = experiment: Antibacterial activity against methicillin-resistant Staphylococcus aureus NRS 129 assessed as reduction in bacterial growth measured after 18 to 24 hrs by broth microdilution method; assay type: functional; settings: time 18-24 hrs
[35] = Solubility of the compound in DMSO/DMF; assay type: physicochemical
Staphylococcus aureus [36] = experiment: Induction of morphological changes in Staphylococcus aureus ATCC 29213 assessed as leakage of subcellular components at 2 to 10 times MIC measured after 4 hrs by Scanning electron microscopy based analysis; assay type: functional, organism-based
Staphylococcus aureus [37] = experiment: Antibacterial activity against methicillin-resistant Staphylococcus aureus NRS 191 assessed as reduction in bacterial growth measured after 18 to 24 hrs by broth microdilution method; assay type: functional; settings: time 18-24 hrs
Staphylococcus aureus [38] = experiment: Induction of morphological changes in Staphylococcus aureus ATCC 29213 assessed as appearance of cell surface fold at 2 to 10 times MIC measured after 4 hrs by Scanning electron microscopy based analysis; assay type: functional, organism-based
Staphylococcus aureus [39] = experiment: Induction of morphological changes in Staphylococcus aureus ATCC 29213 assessed as cell shrinkage at 10 times MIC measured after 4 hrs by atomic force microscopy based analysis (reference value: 60.170 nanometer); assay type: functional
Staphylococcus aureus [40] = experiment: Drug resistance, ratio of MIC for Staphylococcus aureus ATCC 29213 after 20 passages exposure to MIC for Staphylococcus aureus ATCC 29213 during first exposure; assay type: functional

CC(C)(C)c1cc(C(c2ccccc2)c2ccccc2)c(NC(=O)c2cccc(C(=O)O)c2)c(C(c2ccccc2)c2ccccc2)c1
MIC (Staphylococcus aureus [1]): 4 µg/mL (≈ 0.00635 mM)
MIC (Pseudomonas aeruginosa): > 64 µg/mL
Activity (Staphylococcus aureus [2]): Active
inhibition (Staphylococcus aureus [3]): Active
MIC (Staphylococcus aureus [4]): 2 µg/mL (≈ 0.00318 mM)
inhibition (INH) (Staphylococcus aureus [5]): 95%
MIC (Staphylococcus aureus [6]): 4 µg/mL (≈ 0.00635 mM)
MIC (Staphylococcus aureus [7]): 4 µg/mL (≈ 0.00635 mM)
MIC (Acinetobacter baumannii): > 64 µg/mL
MIC (Staphylococcus aureus [8]): 4 µg/mL (≈ 0.00635 mM)
hemolysis at 1 h, 32 ug/ml [9]: ~25%
MIC (Staphylococcus aureus [10]): 4 µg/mL (≈ 0.00635 mM)
Activity (Staphylococcus aureus [11]): Active
fractional inhibitory concentration index (FICI) (Staphylococcus aureus [12]): 0.75
MIC (Staphylococcus aureus [13]): 4 µg/mL (≈ 0.00635 mM)
Activity (Staphylococcus aureus [14]): 0.68 um
MIC (Staphylococcus aureus [15]): 4 µg/mL (≈ 0.00635 mM)
MIC (Enterococcus faecalis): 1 µg/mL (≈ 0.00159 mM)
Activity (Staphylococcus aureus [16]): 105.1 nm
Activity (HEK293 [17]): Toxic
MIC (Staphylococcus aureus [18]): 4 µg/mL (≈ 0.00635 mM)
Activity (Cell membrane [19]): Active
MIC (Bacillus subtilis): 1 µg/mL (≈ 0.00159 mM)
MIC (Staphylococcus aureus [20]): 4 µg/mL (≈ 0.00635 mM)
Activity (HEK293 [21]): Toxic
Activity (Staphylococcus aureus [22]): Active
inhibition (INH) (Staphylococcus aureus [23]): >50%
Activity (Cell membrane [24]): Active
MIC (Escherichia coli): > 64 µg/mL
solubility [25]: Insoluble
Ki [26]: 117 µM
Ki [27]: 133 µM
Ki [28]: 2.52 µM
MIC (Staphylococcus aureus [29]): 4 µg/mL (≈ 0.00635 mM)
MIC (Staphylococcus aureus [30]): 4 µg/mL (≈ 0.00635 mM)
MIC (Klebsiella pneumoniae): > 64 µg/mL
Activity (Staphylococcus aureus [31]): Active
fractional inhibitory concentration index (FICI) (Staphylococcus aureus [32]): 0.258
inhibition (INH) (Staphylococcus aureus [33]): 95%
MIC (Staphylococcus aureus [34]): 4 µg/mL (≈ 0.00635 mM)
solubility [35]: 660 mg/mL (≈ 1050 mM)
Activity (Staphylococcus aureus [36]): Active
MIC (Staphylococcus aureus [37]): 4 µg/mL (≈ 0.00635 mM)
Activity (Staphylococcus aureus [38]): Active
Activity (Staphylococcus aureus [39]): 53.464 nm

CCn1cc(C(=O)O)c(=O)c2cc(F)c(N3CCNCC3)cc21 [NORFLOXACIN]
Ratio (Staphylococcus aureus [40]): 64

CC(C)(C)c1cc(C(c2ccc(F)cc2)c2ccc(F)cc2)c(NC(=O)c2cccc(C(=O)O)c2)c(C(c2ccc(F)cc2)c2ccc(F)cc2)c1
MIC (Staphylococcus aureus [1]): 2 µg/mL (≈ 0.00285 mM)
MIC (Pseudomonas aeruginosa): > 64 µg/mL
inhibition (Staphylococcus aureus [3]): Active
MIC (Staphylococcus aureus [4]): 2 µg/mL (≈ 0.00285 mM)
inhibition (INH) (Staphylococcus aureus [5]): 95%
MIC (Staphylococcus aureus [6]): 2 µg/mL (≈ 0.00285 mM)
MIC (Staphylococcus aureus [7]): 2 µg/mL (≈ 0.00285 mM)
MIC (Acinetobacter baumannii): > 64 µg/mL
MIC (Staphylococcus aureus [8]): 2 µg/mL (≈ 0.00285 mM)
MIC (Staphylococcus aureus [10]): 2 µg/mL (≈ 0.00285 mM)
MIC (Staphylococcus aureus [13]): 2 µg/mL (≈ 0.00285 mM)
MIC (Staphylococcus aureus [15]): 2 µg/mL (≈ 0.00285 mM)
MIC (Enterococcus faecalis): 1 µg/mL (≈ 0.00142 mM)
MIC (Staphylococcus aureus [18]): 2 µg/mL (≈ 0.00285 mM)
MIC (Bacillus subtilis): 1 µg/mL (≈ 0.00142 mM)
MIC (Staphylococcus aureus [20]): 2 µg/mL (≈ 0.00285 mM)
inhibition (INH) (Staphylococcus aureus [23]): >50%
MIC (Escherichia coli): > 64 µg/mL
MIC (Staphylococcus aureus [29]): 2 µg/mL (≈ 0.00285 mM)
MIC (Staphylococcus aureus [30]): 2 µg/mL (≈ 0.00285 mM)
MIC (Klebsiella pneumoniae): > 64 µg/mL
inhibition (INH) (Staphylococcus aureus [33]): 95%
MIC (Staphylococcus aureus [34]): 2 µg/mL (≈ 0.00285 mM)
MIC (Staphylococcus aureus [37]): 2 µg/mL (≈ 0.00285 mM)
